Source: patent EP4471049A1 (Zealand Pharma A/S, priority 2023, dated 2024)
*1 amine or outer side, *2 acyl side, *3 side chain or, on linkers, in order; H or OH if unused. Where a SMILES comes first, the peptide text is derived from it. Bridges are numbered along the chain shown (N, C = ends). [ ]: non-standard residue; d: D form. 2Nal = N[C@@H](Cc1ccc2ccccc2c1)C(=O)O; AEF = NCCOc1ccc(C[C@H](N)C(=O)O)cc1; X1 = O=C(Cc1ccc(CN[*:1])cc1)[*:2]; 3Pal = N[C@@H](Cc1cccnc1)C(=O)O; αMeL = CC(C)C[C@](C)(N)C(=O)O; Dab = NCC[C@H](N)C(=O)O; Sar = CNCC(=O)O

Key:
[1] = Peptide stability in simulated gastric fluid (SGF); type: in vitro ADME; settings: pig, simulated gastric fluid (SGF) with porcine pepsin, 37 °C, pH 1.2, porcine pepsin 3.2 g/L
In short: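 Peptide incubated at 37 °C with gentle shaking in SGF (NaCl, pH 1.2). Samples centrifuged, diluted and analysed by LC-HRMS; percent remaining at each timepoint from absolute peak areas relative to time zero, with 4 h as the reference point.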

human IL-23R = target: T1, human IL-23R (Homo sapiens, UniProt Q5VWK5); experiment: biochemical
T1 sequence (Q5VWK5 22-629): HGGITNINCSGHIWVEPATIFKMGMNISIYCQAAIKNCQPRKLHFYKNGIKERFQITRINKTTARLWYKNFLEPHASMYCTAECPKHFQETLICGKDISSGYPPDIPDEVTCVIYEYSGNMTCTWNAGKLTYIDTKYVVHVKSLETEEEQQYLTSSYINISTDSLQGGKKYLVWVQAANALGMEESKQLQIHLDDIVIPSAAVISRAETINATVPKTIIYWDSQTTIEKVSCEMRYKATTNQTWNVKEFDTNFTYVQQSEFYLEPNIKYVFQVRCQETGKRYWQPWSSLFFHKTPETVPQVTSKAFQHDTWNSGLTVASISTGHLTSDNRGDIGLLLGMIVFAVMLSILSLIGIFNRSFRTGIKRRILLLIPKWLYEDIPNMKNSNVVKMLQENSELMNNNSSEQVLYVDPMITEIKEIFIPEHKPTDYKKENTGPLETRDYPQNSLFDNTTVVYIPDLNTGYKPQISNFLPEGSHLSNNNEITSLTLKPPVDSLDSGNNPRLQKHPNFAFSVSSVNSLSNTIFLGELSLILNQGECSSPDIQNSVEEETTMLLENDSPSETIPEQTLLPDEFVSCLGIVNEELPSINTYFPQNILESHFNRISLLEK
In short: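 BRET displacement of a TAMRA-labelled reference compound from N-terminal Nanoluc-IL-23R fusion protein in membranes from stably transfected HEK293 cells. Incubation 2 h at room temperature, then Nanoluc substrate was added and the TAMRA/Nanoluc ratio read. IC50 and maximal displacement came from 4-parameter logistic fits.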

CC(C)C[C@]1(C)NC(=O)[C@H](Cc2ccc3ccccc3c2)NC(=O)[C@H](Cc2ccc(OCCN)cc2)NC(=O)[C@@H]2CCNC(=O)CC[C@H](NC(=O)[C@H](CO)NC(=O)Cc3ccc(cc3)CNC(=O)CC[C@@H](C(=O)N[C@@H](CCN)C(=O)N[C@@](C)(Cc3cccnc3)C(N)=O)NC1=O)C(=O)N[C@@H](Cc1c[nH]c3ccccc13)C(=O)N[C@@H](CCC(N)=O)C(=O)N2 [Compound 3, [4-Aminomethyl-phenylacetyl](1c)*SE(2c)WQ[Dab](2c)[Y(2-aminoethoxy)][2-Nal][2-Me-Leu]E(1c)[Dab][2-Me-3-(3-Pyridyl)-Ala]-[NH2]]
remaining at 1 h, 10 µM [1]: 99%
% displacement (hIL-23R binding) (human IL-23R): 99%
IC50 (human IL-23R): 0.034 nM

CC(C)C[C@]1(C)NC(=O)[C@H](Cc2ccc3ccccc3c2)NC(=O)[C@H](Cc2ccc(OCCN)cc2)NC(=O)[C@@H]2CCNC(=O)CC[C@H](NC(=O)[C@H](CO)NC(=O)Cc3ccc(cc3)CNC(=O)CC[C@@H](C(=O)N[C@@H](CCN)C(=O)N(C)[C@@H](Cc3cccnc3)C(N)=O)NC1=O)C(=O)N[C@@H](Cc1c[nH]c3ccccc13)C(=O)N[C@@H](CCC(N)=O)C(=O)N2 [Compound 4, [4-Aminomethyl-phenylacetyl](1c)*SE(2c)WQ[Dab](2c)[Y(2-aminoethoxy)][2-Nal][2-Me-Leu]E(1c)[Dab][N-Me-3-(3-Pyridyl)-Ala]-[NH2]]
remaining at 1 h, 10 µM [1]: 97%
% displacement (hIL-23R binding) (human IL-23R): 111%

CC(C)C[C@]1(C)NC(=O)[C@H](Cc2ccc3ccccc3c2)NC(=O)[C@H](Cc2ccc(OCCN)cc2)NC(=O)[C@@H]2CCNC(=O)CC[C@H](NC(=O)[C@H](CO)NC(=O)Cc3ccc(cc3)CNC(=O)CC[C@@H](C(=O)N[C@@H](CCN)C(=O)N[C@H](Cc3cccnc3)C(N)=O)NC1=O)C(=O)N[C@@H](Cc1c[nH]c3ccccc13)C(=O)N[C@@H](CCC(N)=O)C(=O)N2 [Compound 5, [4-Aminomethyl-phenylacetyl](1c)*SE(2c)WQ[Dab](2c)[Y(2-aminoethoxy)][2-Nal][2-Me-Leu]E(1c)[Dab][{d}3-(3-Pyridyl)-Ala]-[NH2]]
remaining at 1 h, 10 µM [1]: 99%
% displacement (hIL-23R binding) (human IL-23R): 99%
IC50 (human IL-23R): 0.093 nM

CC(C)C[C@]1(C)NC(=O)[C@H](Cc2ccc3ccccc3c2)NC(=O)[C@H](Cc2ccc(OCCN)cc2)NC(=O)[C@@H]2CCNC(=O)CC[C@H](NC(=O)[C@H](CO)NC(=O)Cc3ccc(cc3)CNC(=O)CC[C@@H](C(=O)N[C@@H](CCN)C(=O)NCCCCc3cccnc3)NC1=O)C(=O)N[C@@H](Cc1c[nH]c3ccccc13)C(=O)N[C@@H](CCC(N)=O)C(=O)N2 [Compound 6, [4-Aminomethyl-phenylacetyl](1c)*SE(2c)WQ[Dab](2c)[Y(2-aminoethoxy)][2-Nal][2-Me-Leu]E(1c)[Dab]-[NH-(4-(pyridin-3-yl)butanyl)]]
% displacement (hIL-23R binding) (human IL-23R): 103%

CC(C)C[C@]1(C)NC(=O)[C@H](Cc2ccc3ccccc3c2)NC(=O)[C@H](Cc2ccc(OCCN)cc2)NC(=O)[C@@H]2CCNC(=O)CC[C@H](NC(=O)[C@H](CO)NC(=O)Cc3ccc(cc3)CNC(=O)CC[C@@H](C(=O)N[C@@H](CCN)C(=O)NCCc3cccnc3)NC1=O)C(=O)N[C@@H](Cc1c[nH]c3ccccc13)C(=O)N[C@@H](CCC(N)=O)C(=O)N2 [Compound 7, [4-Aminomethyl-phenylacetyl](1c)*SE(2c)WQ[Dab](2c)[Y(2-aminoethoxy)][2-Nal][2-Me-Leu]E(1c)[Dab]-[NH-(2-(pyridin-3-yl)ethyl)]]
remaining at 1 h, 10 µM [1]: 77%
remaining at 4 h, 10 µM [1]: 82%
IC50 (human IL-23R): 0.012 nM
Emax (human IL-23R; read-out: % displacement (hIL-23R binding)): 102%

CNC(=O)[C@H](Cc1cccnc1)NC(=O)[C@H](CCN)NC(=O)[C@@H]1CCC(=O)NCc2ccc(cc2)CC(=O)N[C@@H](CO)C(=O)N[C@H]2CCC(=O)NCC[C@H](NC(=O)[C@H](CCC(N)=O)NC(=O)[C@H](Cc3c[nH]c4ccccc34)NC2=O)C(=O)N[C@@H](Cc2ccc(OCCN)cc2)C(=O)N[C@@H](Cc2ccc3ccccc3c2)C(=O)N[C@@](C)(CC(C)C)C(=O)N1 [Compound 8, [4-Aminomethyl-phenylacetyl](1c)*SE(2c)WQ[Dab](2c)[Y(2-aminoethoxy)][2-Nal][2-Me-Leu]E(1c)[Dab][3-(3-Pyridyl)-Ala]-[NHMe]]
% displacement (hIL-23R binding) (human IL-23R): 103%
IC50 (human IL-23R): 0.0098 nM

CC(C)C[C@]1(C)NC(=O)[C@H](Cc2ccc3ccccc3c2)NC(=O)[C@H](Cc2ccc(OCCN)cc2)NC(=O)[C@@H]2CCNC(=O)CC[C@H](NC(=O)[C@H](CO)NC(=O)Cc3ccc(cc3)CNC(=O)CC[C@@H](C(=O)N[C@@H](CCN)C(=O)N[C@@H](Cc3cccnc3)C(=O)N(C)CC(N)=O)NC1=O)C(=O)N[C@@H](Cc1c[nH]c3ccccc13)C(=O)N[C@@H](CCC(N)=O)C(=O)N2 [Compound 9, [4-Aminomethyl-phenylacetyl](1c)*SE(2c)WQ[Dab](2c)[Y(2-aminoethoxy)][2-Nal][2-Me-Leu]E(1c)[Dab][3-(3-Pyridyl)-Ala][Sar]-[NH2]] ([X1]SEWQ[Dab][AEF][2Nal][αMeL]E[Dab][3Pal][Sar]-NH2; lactam 3-6, N-10)
remaining at 1 h, 10 µM [1]: 96%
% displacement (hIL-23R binding) (human IL-23R): 100%
IC50 (human IL-23R): 0.0053 nM

CC(C)C[C@]1(C)NC(=O)[C@H](Cc2ccc3ccccc3c2)NC(=O)[C@H](Cc2ccc(OCCN)cc2)NC(=O)[C@@H]2CCNC(=O)CC[C@H](NC(=O)[C@H](CO)NC(=O)Cc3ccc(cc3)CNC(=O)CC[C@@H](C(=O)N[C@@H](CCN)C(=O)N[C@@H](Cc3cccnc3)C(=O)N[C@H](Cc3c[nH]cn3)C(N)=O)NC1=O)C(=O)N[C@@H](Cc1c[nH]c3ccccc13)C(=O)N[C@@H](CCC(N)=O)C(=O)N2 [Compound 10, [4-Aminomethyl-phenylacetyl](1c)*SE(2c)WQ[Dab](2c)[Y(2-aminoethoxy)][2-Nal][2-Me-Leu]E(1c)[Dab][3-(3-Pyridyl)-Ala][{d}H]-[NH2]] ([X1]SEWQ[Dab][AEF][2Nal][αMeL]E[Dab][3Pal][dH]-NH2; lactam 3-6, N-10)
remaining at 1 h, 10 µM [1]: 97%
remaining at 4 h, 10 µM [1]: 86%
% displacement (hIL-23R binding) (human IL-23R): 91%
IC50 (human IL-23R): 0.0058 nM

CC(C)C[C@]1(C)NC(=O)[C@H](Cc2ccc3ccccc3c2)NC(=O)[C@H](Cc2ccc(OCCN)cc2)NC(=O)[C@@H]2CCNC(=O)CC[C@H](NC(=O)[C@H](CO)NC(=O)Cc3ccc(cc3)CNC(=O)CC[C@@H](C(=O)N[C@@H](CCN)C(=O)N[C@@H](Cc3c[nH]cn3)C(=O)N[C@@H](Cc3cccnc3)C(N)=O)NC1=O)C(=O)N[C@@H](Cc1c[nH]c3ccccc13)C(=O)N[C@@H](CCC(N)=O)C(=O)N2 [Compound 12, [4-Aminomethyl-phenylacetyl](1c)*SE(2c)WQ[Dab](2c)[Y(2-aminoethoxy)][2-Nal][2-Me-Leu]E(1c)[Dab]H[3-(3-Pyridyl)-Ala]-[NH2]] ([X1]SEWQ[Dab][AEF][2Nal][αMeL]E[Dab]H[3Pal]-NH2; lactam 3-6, N-10)
remaining at 4 h, 10 µM [1]: 93%
% displacement (hIL-23R binding) (human IL-23R): 104%
IC50 (human IL-23R): 0.057 nM

CC(C)C[C@]1(C)NC(=O)[C@H](Cc2ccc3ccccc3c2)NC(=O)[C@H](Cc2ccc(OCCN)cc2)NC(=O)[C@@H]2CCNC(=O)CC[C@H](NC(=O)[C@H](CO)NC(=O)Cc3ccc(cc3)CNC(=O)CC[C@@H](C(=O)N[C@@H](CCN)C(=O)N[C@H](Cc3c[nH]cn3)C(N)=O)NC1=O)C(=O)N[C@@H](Cc1c[nH]c3ccccc13)C(=O)N[C@@H](CCC(N)=O)C(=O)N2 [Compound 13, [4-Aminomethyl-phenylacetyl](1c)*SE(2c)WQ[Dab](2c)[Y(2-aminoethoxy)][2-Nal][2-Me-Leu]E(1c)[Dab][{d}H]-[NH2]]
remaining at 4 h, 10 µM [1]: 78%
% displacement (hIL-23R binding) (human IL-23R): 100%
IC50 (human IL-23R): 0.059 nM
